Measurements reported in patent US20250255929A1, “METHODS FOR REDUCING RISKS ASSOCIATED WITH HEART FAILURE AND FACTORS ASSOCIATED THEREWITH” (Stealth BioTherapeutics Inc., priority 2012, published 2025).
Where “and” joins values, the source holds several entries; their conditions need not be identical. Equal entries are not always repeated. Square brackets hold non-standard residues; d marks the D form. Ends that are not written are not given here. Dmt = Cc1cc(O)cc(C)c1C[C@H](N)C(=O)O

Columns and labels:
Format in all cases: in vivo
interleukin-6 (IL-6) = experiment: Plasma IL-6 (double antibody sandwich ELISA) in dog model of heart failure; settings: plasma
Description: The methods of Example 1 were used to induce heart failure, administer peptide or vehicle and collect plasma. Fourteen dogs were used in this example. Half the dogs were treated with the mitochondrial peptide; the other half were treated with drug vehicle and served as controls. Peptide treatment was started in both groups upon induction of heart failure (HF), defined as left ventricular ejection fraction of approximately 30%.
IL-6 was quantified in EDTA-plasma using the double antibody sandwich ELISA technique. Briefly, IL-6 (Canine IL-6 Duo Set, Cat #DY1609) was purchased from R&D Systems. The assay was performed based on instructions provided by the supplier with minor modifications. The amount of EDTA-plasma incubated with the antibody plate was 150 μl and incubation time was 18 hours at 4° C. Using standard curves and software, the concentration of IL-6 was expressed as pg/ml.

TNF-alpha = experiment: Plasma TNF-alpha (double antibody sandwich ELISA) in dog model of heart failure; settings: for plasma TNF-alpha levels (FIG. 4), in words: HF dogs
Description: The methods of Example 1 was used induce heart failure, administer peptide or vehicle, and to collect plasma samples for analysis. Fourteen dogs were used in this example. Half the dogs were treated with the peptide; the other half were treated with drug vehicle and served as controls. Peptide treatment was started in both groups upon induction of heart failure (HF), defined as left ventricular ejection fraction of approximately 30%.
TNF-alpha was quantified in EDTA-plasma using a double antibody sandwich ELISA. Briefly, TNF-alpha (Canine TNFα Duo Sett, Cat #DY1507) was purchased from R&D Systems. The assay was performed based on instructions provided by the supplier with minor modifications. The amount of EDTA-plasma incubated with antibody plate was 150 μl and incubation time was 18 hours at 4° C. Using standard curves and software, the concentration of TNFα was expressed as pg/ml.

C-reactive protein = experiment: Plasma C-reactive protein (canine ELISA) in dog model of heart failure; design: C-reactive protein concentration, BL, Mean / C-reactive protein concentration, 12 Wk, Mean / C-reactive protein concentration, BL / C-reactive protein concentration, 6 Wk / C-reactive protein concentration, 12 Wk: unit not given here; settings: for plasma CRP levels (FIG. 1), in words: HF dogs
Description: (§1) Heart failure was induced in dogs via multiple sequential intracoronary microembolizations as described in Sabbah, et al., Am J Physiol. (1991) 260:H1379-84, herein incorporated by reference in its entirety.
Half the dogs were subsequently treated with the mitochondrial peptide; the other half were treated with drug vehicle and served as controls. Peptide treatment was started upon induction of heart failure (HF), defined as left ventricular ejection fraction of approximately 30%. Peripheral venous blood samples were obtained from all dogs at the following time points: 1) when the dogs were normal (baseline, prior to the induction of heart failure); 2) when the dogs were induced into heart failure; 3) at 6 weeks after initiating therapy with the mitochondrial peptide or vehicle (HF+peptide, or HF+vehicle) both administered once daily as subcutaneous injections; and 4) at 12 weeks after initiating therapy with the mitochondrial peptide or vehicle. The daily dose of the peptide was 0.5 mg/kg/day administered […]. Blood samples were drawn on EDTA anticoagulant and were centrifuged at 2,500 RPM and the plasma extracted, aliquoted in 1 ml volumes into crystat tubes and stored at −70° C. until assayed. Once the follow-up was completed in all dogs, the plasma samples were thawed to room temperature and CRP was assayed using a canine specific ELISA kit (ALPCO: Cat #41-CRPCA-E01). The calorimetric method was used to assess the amount of CRP in plasma. CRP concentration was expressed as […].

[1] = tested on: mitochondrial ATP-sensitive potassium channel (mK ATP); experiment: mK ATP activation in LV mitochondria (thallium-sensitive fluorophore assay), dog model of heart failure; settings: LV mitochondria of HF dogs after three months, 0.5 mg/kg/day, n=5; control 1372±112, p<0.05
Description: as §1
Heart failure was induced as described in Example 1. […] Half the dogs were treated with the peptide (n=5); the other half were treated with drug vehicle and served as controls (n=5). Peptide treatment was started upon induction of heart failure (HF), defined as left ventricular ejection fraction of approximately 30%. The daily dose of the peptide was 0.5 mg/kg/day administered intravenously for three months. Subcutaneous daily injections of saline were administered to the controls. Left ventricular tissue was harvested at the end of the three months of treatment. Mitochondria were isolated from the tissue. MK ATP activation was measured using the thallium-sensitive fluorophore assay kit and quantified in relative fluorescence units (RFU) per mg protein. Mitochondrial ATP to ADP ratio was measured using the bioluminescent ApoSENSOR™ assay kit (Enzo Life Sciences, Farmingdale, NY).

MLCL AT1 = MLCL AT1 mRNA in LV tissue (real-time PCR), dog model of heart failure; settings: LV tissue of HF dogs, 3 months, 0.5 mg/kg once daily s.c., n=6; untreated HF increased 2.60-fold vs normal; normalized to GAPDH
Description: as §1
Twelve dogs were subject to coronary microembolization-induced heart failure (LV ejection fraction ˜30%) as described in Example 1. […] RNA was prepared from LV tissue of all 12 dogs at the end of the treatment phase and from the LV of 6 normal (NL) dogs for comparison. mRNA levels of Taz1, MLCL AT1 and ALCAT1 were determined by real-time PCR. Changes in mRNA expression were expressed as fold changes using the CT Method with normalization to […] (GAPDH) as internal control.

With “D-Arg-2′,6′-Dmt-Lys-Phe-NH2 ([dR][Dmt]KF-NH2) [aromatic-cationic peptide]” the “IL-6 concentration, 6 Wk” value (interleukin-6 (IL-6); individual HF dogs, 6 weeks after initiating therapy) was 18.8 pg/ml and 23.4 pg/ml and 24.3 pg/ml and 19.5 pg/ml and 19.6 pg/ml (2×) and 20.5 pg/ml, the “IL-6 concentration, 12 Wk” value (interleukin-6 (IL-6); individual HF dogs, 12 weeks after initiating therapy) was 11.7 pg/mL and 11.3 pg/mL and 13.6 pg/mL and 11.5 pg/mL and 12.5 pg/mL and 11.9 pg/mL and 11.4 pg/mL and the “IL-6 concentration, 6 Wk, Mean” value (interleukin-6 (IL-6); mean of 7 HF dogs, 6 weeks after initiating therapy) was 20.8 pg/mL. For the same substance, the “IL-6 concentration, 12 Wk, Mean” value (interleukin-6 (IL-6); mean of 7 HF dogs, 12 weeks after initiating therapy) was 12.0 pg/mL, the “IL-6 concentration, BL, Mean” value (interleukin-6 (IL-6); peptide group mean (7 dogs), baseline (before HF and treatment)) was 10.1 pg/mL and the “IL-6 concentration, PRE, Mean” value (interleukin-6 (IL-6); peptide group mean (7 dogs), heart failure prior to initiating therapy) was 26.6 pg/mL. For the same substance, the “IL-6 concentration, BL” value (interleukin-6 (IL-6); peptide group, individual dogs, baseline (before HF and treatment)) was 9.1 pg/mL and 5.8 pg/mL and 7.0 pg/mL and 12.6 pg/mL and 10.3 pg/mL and 12.5 pg/mL and 13.0 pg/mL, the “IL-6 concentration, PRE” value (interleukin-6 (IL-6); peptide group, individual dogs, heart failure prior to initiating therapy) was 29.3 pg/mL and 18.5 pg/mL and 29.2 pg/mL and 18.0 pg/mL and 31.2 pg/mL and 29.4 pg/mL and 30.4 pg/mL and the “plasma TNF-alpha levels (FIG. 4), in words” value (TNF-alpha; treatment for 12 weeks) was “near normal levels”. The “plasma TNF-alpha levels (FIG. 4), in words” value (TNF-alpha; treatment for six weeks) was “reduced TNF-alpha levels”, the “TNF-α concentration, 6 Wk” value (TNF-alpha; plasma, individual HF dogs, 6 weeks after initiating therapy) was 3.27 pg/mL and 3.08 pg/mL and 3.50 pg/mL and 3.16 pg/mL and 3.72 pg/mL and 3.12 pg/mL and 2.60 pg/mL and the “TNF-α concentration, 12 Wk” value (TNF-alpha; plasma, individual HF dogs, 12 weeks after initiating therapy) was 1.14 pg/mL and 1.42 pg/mL and 1.18 pg/mL and 1.75 pg/mL and 1.69 pg/mL and 1.53 pg/mL and 1.35 pg/mL. The “TNF-α concentration, 6 Wk, Mean” value (TNF-alpha; plasma, mean of 7 HF dogs, 6 weeks after initiating therapy) was 3.21 pg/mL, the “TNF-α concentration, 12 Wk, Mean” value (TNF-alpha; plasma, mean of 7 HF dogs, 12 weeks after initiating therapy) was 1.44 pg/mL and the “TNF-α concentration, BL, Mean” value (TNF-alpha; plasma, peptide group mean (7 dogs), baseline (before HF and treatment)) was 1.24 pg/mL. For the same substance, the “TNF-α concentration, PRE, Mean” value (TNF-alpha; plasma, peptide group mean (7 dogs), heart failure prior to initiating therapy) was 4.36 pg/mL, the “TNF-α concentration, BL” value (TNF-alpha; plasma, peptide group, individual dogs, baseline (before HF and treatment)) was 0.90 pg/mL and 0.97 pg/mL and 1.02 pg/mL and 1.85 pg/mL and 1.30 pg/mL and 1.11 pg/mL and 1.54 pg/mL and the “TNF-α concentration, PRE” value (TNF-alpha; plasma, peptide group, individual dogs, heart failure prior to initiating therapy) was 4.26 pg/ml (2×) and 3.96 pg/ml and 4.69 pg/ml and 4.59 pg/ml and 4.31 pg/ml and 4.42 pg/ml. The “plasma CRP levels (FIG. 1), in words” value (C-reactive protein; treatment for 12 weeks) was “normal or near normal levels”, the “plasma CRP levels (FIG. 1), in words” value (C-reactive protein; treatment for six weeks) was “reduced CRP levels” and the “C-reactive protein concentration, 6 Wk” value (C-reactive protein; plasma, individual HF dogs, 6 weeks after initiating therapy, 0.5 mg/kg/day) was 1.12. The “C-reactive protein concentration, 12 Wk, Mean” value (C-reactive protein; plasma, mean of 3 HF dogs, 12 weeks after initiating therapy, 0.5 mg/kg/day) was 1.42, the “C-reactive protein concentration, BL, Mean” value (C-reactive protein; plasma, peptide group mean (3 dogs), baseline, prior to induction of heart failure (before treatment)) was 1.82 and the “activation of mK ATP” value [1] was 2775±254 relative fluorescence units (R. For the same substance, the “MLCL AT1 mRNA: reduced increase, fold” value (MLCL AT1) was 1.18 fold.
